Laboratory results as given in patent US20130023485A1, “PARENTERAL FORMULATIONS OF PEPTIDES FOR THE TREATMENT OF SYSTEMATIC LUPUS ERYTHEMATOSUS” (Teva Pharmaceutical Industries, Ltd., priority 2003, published 2013).

How the values were obtained:
[1] = Mouse toxicity study of formulation; format: in vivo; settings: 30% (w/w) PEG 400 formulation
Description: Thus, it was decided not to further pursue this formulation. In view of the preliminary experiments non-aqueous solvents were not used in the subject formulations.

[2] = tested on: LN cells; experiment: IFN-γ secretion by cultured LN cells of immunized and treated mice (ELISA); format: in vivo, BALB/c mice
Experimental: A group of 20 mice were immunized with 50 μg/mouse of Compound 1 RS. The immunized mice were allocated to five treatment groups as follows: placebo, 25, 50, 100 and 200 μg/mouse of Compound 1 DP (subcutaneous administration). Ten days post immunization and treatment, LN was extracted and single cell suspension was prepared. The in-vitro secretion of IFN-γ and TGF-β by the cultured cells in response to activation with several concentrations of Compound 1 RS was then measured. [table] [table] Mice: 20 female BALB/c mice, supplied by Harlan animals breeding center, Rehovot. Age at immunization (week+days): 10 Average weight of mice included in the experiment: 19.01 gr. The immunization was performed by injecting 100 microliters of the immunization emulsion (50 microliters into each hind footpad). […] Mice were sacrificed by cervical dislocation. LN were extracted from the hind legs and were transferred to a sterile petri dish containing about 5 mL RPMI. The cells were extracted by gentle squeezing of the tissue against a 200 micrometer mesh stainless steel net. The cells were collected and centrifuged at 300 G for 10 minutes at RT. Single cell suspensions were prepared from pooled LN of each experimental group. […] Secretion of IFN-γ and TGF-β, as indication of cellular response, were determined by ELISA of culture media (48 hrs for IFN-γ and 72 hrs for TGF-β).

[3] = tested on: SLE subjects; experiment: Phase Ia clinical study, single s.c. dose, tolerability and safety; format: in vivo, human
Experimental: Thirty-six (36) subjects participated in the study. To be eligible for inclusion in the study, SLE patients must have fulfilled at least four criteria used for the diagnosis of lupus by the American College of Rheumatology. Patients must also have had stable, mild/moderate disease and score less than or equal to 10 on the SLE Disease Activity Index, SLEDAI. […] A standard battery of safety tests, including blood and urine collection for laboratory tests, was performed at screening, during the day of dosing, at 24 hours post-dose and at 2, 4 and 8 weeks following dosing. Prior to dosing, and on scheduled follow-up visits, blood samples were withdrawn for SLE-related immunological tests, anti-Compound 1 antibodies and PBL proliferation assay. […] The following safety parameters were assessed at Screening, during the hospitalization and at follow-up visits including Termination visit: vital signs (systolic blood pressure, diastolic blood pressure, pulse, oxygen saturation, temperature and weight), 12-lead ECG, change in physical examination and clinical routine laboratory safety tests. Adverse events were recorded at the Dosing Day and at each visit thereafter. SLE-related immunological tests were performed at Screening, during the hospitalization and at follow-up visits including Termination visit. […] Disease activity assessment using the SLE disease activity index score, year 2000 updated (SLEDAI 2K) was assessed at Screening, during the hospitalization and at follow-up visits including Termination visit.

[4] = tested on: SLE subjects; experiment: Phase Ib clinical study, multiple s.c. doses, tolerability and safety; format: in vivo, human; settings: multiple s.c. doses of 0.5, 1 or 2.5 mg in 120 mg Captisol®, 12 injections in 4 weeks
Experimental: This study is being performed in order to evaluate the safety and tolerability of repeated Compound 1 sc administration to SLE subjects. […] Subjects are monitored on planned visits scheduled at 2, 4, 8 and 12 weeks after start of dosing. Safety and tolerability are evaluated using tests similar to those described in the Phase Ia Clinical Study above.

[5] = Solubility of Compound 1 with solubility enhancers (visual examination and analytical assay)
[6] = single s.c. 0.5, 1 or 2.5 mg in Captisol®

H-GYYWSWIRQPPGKGEEWIG-OH [Compound 1]
adverse effects [1]: may have been the cause of some adverse effects | Final cytokine (IFN-γ) ([2]; treated 25 μg/M s.c., 5 million cells/well, activation Compound 1 3.125 μg/ml): BQL | Final cytokine (IFN-γ) ([2]; treated 25 μg/M s.c., 5 million cells/well, activation Compound 1 6.25 μg/ml): BQL | Final cytokine (IFN-γ) ([2]; treated 25 μg/M s.c., 5 million cells/well, activation Compound 1 12.5 μg/ml): 41.9 pg/mL | Final cytokine (IFN-γ) ([2]; treated 25 μg/M s.c., 5 million cells/well, activation Compound 1 50 μg/ml): 104.2 pg/mL | Final cytokine (IFN-γ) ([2]; treated 25 μg/M s.c., 5 million cells/well, activation Compound 1 100 μg/ml): 185.2 pg/mL | Final cytokine (IFN-γ) ([2]; treated 25 μg/M s.c., 5 million cells/well, activation Compound 1 25 μ/ml): 70.0 pg/mL | Final cytokine (IFN-γ) ([2]; treated 25 μg/M s.c., 5 million cells/well, activation Con A): 2995.3 pg/mL | Final cytokine (IFN-γ) ([2]; treated 50 μg/M s.c., 2.5 million cells/well, activation Compound 1 3.125 μg/ml): 54.1 pg/mL | Final cytokine (IFN-γ) ([2]; treated 50 μg/M s.c., 2.5 million cells/well, activation Compound 1 6.25 μg/ml): 81.8 pg/mL | Final cytokine (IFN-γ) ([2]; treated 50 μg/M s.c., 2.5 million cells/well, activation Compound 1 12.5 μg/ml): 123.1 pg/mL | Final cytokine (IFN-γ) ([2]; treated 50 μg/M s.c., 2.5 million cells/well, activation Compound 1 50 μg/ml): 292.5 pg/mL | Final cytokine (IFN-γ) ([2]; treated 50 μg/M s.c., 2.5 million cells/well, activation Compound 1 100 μg/ml): 531.8 pg/mL | Final cytokine (IFN-γ) ([2]; treated 50 μg/M s.c., 2.5 million cells/well, activation Compound 1 25 μ/ml): 215.1 pg/mL | Final cytokine (IFN-γ) ([2]; treated 50 μg/M s.c., 2.5 million cells/well, activation Con A): 356.2 pg/mL | Final cytokine (IFN-γ) ([2]; treated 50 μg/M s.c., 5 million cells/well, activation Compound 1 3.125 μg/ml): 76.2 pg/mL | Final cytokine (IFN-γ) ([2]; treated 50 μg/M s.c., 5 million cells/well, activation Compound 1 6.25 μg/ml): 109.2 pg/mL | Final cytokine (IFN-γ) ([2]; treated 50 μg/M s.c., 5 million cells/well, activation Compound 1 12.5 μg/ml): 179.5 pg/mL | Final cytokine (IFN-γ) ([2]; treated 50 μg/M s.c., 5 million cells/well, activation Compound 1 50 μg/ml): 373.4 pg/mL | Final cytokine (IFN-γ) ([2]; treated 50 μg/M s.c., 5 million cells/well, activation Compound 1 100 μg/ml): 547.0 pg/mL | Final cytokine (IFN-γ) ([2]; treated 50 μg/M s.c., 5 million cells/well, activation Compound 1 25 μ/ml): 277.9 pg/mL | Final cytokine (IFN-γ) ([2]; treated 50 μg/M s.c., 5 million cells/well, activation Con A): 4837.0 pg/mL | Final cytokine (IFN-γ) ([2]; treated 100 μg/M s.c., 2.5 million cells/well, activation Compound 1 3.125 μg/ml): 64.5 pg/mL | Final cytokine (IFN-γ) ([2]; treated 100 μg/M s.c., 2.5 million cells/well, activation Compound 1 6.25 μg/ml): 116.1 pg/mL | Final cytokine (IFN-γ) ([2]; treated 100 μg/M s.c., 2.5 million cells/well, activation Compound 1 12.5 μg/ml): 180.9 pg/mL | Final cytokine (IFN-γ) ([2]; treated 100 μg/M s.c., 2.5 million cells/well, activation Compound 1 50 μg/ml): 518.3 pg/mL | Final cytokine (IFN-γ) ([2]; treated 100 μg/M s.c., 2.5 million cells/well, activation Compound 1 100 μg/ml): 582.7 pg/mL | Final cytokine (IFN-γ) ([2]; treated 100 μg/M s.c., 2.5 million cells/well, activation Compound 1 25 μ/ml): 262.8 pg/mL | Final cytokine (IFN-γ) ([2]; treated 100 μg/M s.c., 2.5 million cells/well, activation Con A): 337.4 pg/mL | Final cytokine (IFN-γ) ([2]; treated 100 μg/M s.c., 5 million cells/well, activation Compound 1 3.125 μg/ml): 90.8 pg/mL | Final cytokine (IFN-γ) ([2]; treated 100 μg/M s.c., 5 million cells/well, activation Compound 1 6.25 μg/ml): 157.8 pg/mL | Final cytokine (IFN-γ) ([2]; treated 100 μg/M s.c., 5 million cells/well, activation Compound 1 12.5 μg/ml): 257.1 pg/mL | Final cytokine (IFN-γ) ([2]; treated 100 μg/M s.c., 5 million cells/well, activation Compound 1 50 μg/ml): 739.7 pg/mL | Final cytokine (IFN-γ) ([2]; treated 100 μg/M s.c., 5 million cells/well, activation Compound 1 100 μg/ml): 995.5 pg/mL | Final cytokine (IFN-γ) ([2]; treated 100 μg/M s.c., 5 million cells/well, activation Compound 1 25 μ/ml): 421.7 pg/mL | Final cytokine (IFN-γ) ([2]; treated 100 μg/M s.c., 5 million cells/well, activation Con A): 10126.8 pg/mL | Final cytokine (IFN-γ) ([2]; treated 200 μg/M s.c., 2.5 million cells/well, activation Compound 1 3.125 μg/ml): 103.9 pg/mL | Final cytokine (IFN-γ) ([2]; treated 200 μg/M s.c., 2.5 million cells/well, activation Compound 1 6.25 μg/ml): 126.1 pg/mL | Final cytokine (IFN-γ) ([2]; treated 200 μg/M s.c., 2.5 million cells/well, activation Compound 1 12.5 μg/ml): 129.0 pg/mL | Final cytokine (IFN-γ) ([2]; treated 200 μg/M s.c., 2.5 million cells/well, activation Compound 1 50 μg/ml): 378.1 pg/mL | Final cytokine (IFN-γ) ([2]; treated 200 μg/M s.c., 2.5 million cells/well, activation Compound 1 100 μg/ml): 524.1 pg/mL | Final cytokine (IFN-γ) ([2]; treated 200 μg/M s.c., 2.5 million cells/well, activation Compound 1 25 μ/ml): 240.3 pg/mL | Final cytokine (IFN-γ) ([2]; treated 200 μg/M s.c., 2.5 million cells/well, activation Con A): BQL | Final cytokine (IFN-γ) ([2]; treated 200 μg/M s.c., 5 million cells/well, activation Compound 1 3.125 μg/ml): 204.4 pg/mL | Final cytokine (IFN-γ) ([2]; treated 200 μg/M s.c., 5 million cells/well, activation Compound 1 6.25 μg/ml): 244.1 pg/mL | Final cytokine (IFN-γ) ([2]; treated 200 μg/M s.c., 5 million cells/well, activation Compound 1 12.5 μg/ml): 466.1 pg/mL | Final cytokine (IFN-γ) ([2]; treated 200 μg/M s.c., 5 million cells/well, activation Compound 1 50 μg/ml): 922.5 pg/mL | Final cytokine (IFN-γ) ([2]; treated 200 μg/M s.c., 5 million cells/well, activation Compound 1 100 μg/ml): 1006.2 pg/mL | Final cytokine (IFN-γ) ([2]; treated 200 μg/M s.c., 5 million cells/well, activation Compound 1 25 μ/ml): 660.5 pg/mL | Final cytokine (IFN-γ) ([2]; treated 200 μg/M s.c., 5 million cells/well, activation Con A): 7722.8 pg/mL | average inhibition of IFN-γ secretion ([2]; treated dose of 25 μg/mouse): 95% | QTc change from baseline [3, 6]: no QTc change from baseline>60 msec | categorical ECG measurements and digitized ECG parameters versus placebo [3, 6]: No differences of clinical significance | hematology, biochemistry or urinalysis values [3, 6]: No clinically significant effect | incidence of AEs versus placebo [3, 6]: no prominent difference | physical exam [3, 6]: No clinically significant effects | serious or severe adverse events [3, 6]: No serious adverse event (SAE) or AE classified as severe occurred | temperature and weight [3, 6]: No clinically significant effect | vital signs (systolic, diastolic blood pressure, pulse, oxygen saturation) [3, 6]: No clinically significant effect | immunological response to tetanus toxoid (TTX) recall antigen ([3]; single s.c. dose in Captisol®): did not change | safety and tolerability ([3]; single s.c. dose of 0.5, 1 or 2.5 mg in 120 mg Captisol®): safe and well tolerated | safety and tolerability [4]: safe and well tolerated | solubility ([5]; 30% (w/w) PEG 400): 5000 to 9000 µg/mL | solubility ([5]; 30% DMA (dimethyl-acetamide) solution): 5000 to 9000 µg/mL | solubility ([5]; Human Serum Albumin solution): 1000 µg/mL | solubility ([5]; Hydroxypropyl-β-cyclodextrin solution): ~10000 µg/mL | solubility ([5]; L-Arginine, resulting pH above 9): at the desired level | solubility ([5]; Polysorbate 20 / Polysorbate 80 solution, up to 10%): ≤ 2000 µg/mL | solubility ([5]; Sulfobutylether-β-cyclodextrin (Captisol) solution): ~2500 µg/mL | effect on solubility ([5]; bulking agents Mannitol, Sorbitol, Dextran, alone and combined): did not improve the solubility | stability versus pH ([5]; initial tests, limits of desired pH levels): less stable at the basic pH range | effect on solubility ([5]; non aqueous solvents Ethanol, Glycerin, Propylene glycol, Chremophore and combinations): did not increase the solubility
